Data: article PMC11882969 (Nature Communications, 2025)
“And” between values parts separate entries of the source, which are not always exact repeats. Identical values can stand only once. Marks after values point to notes of the source that are not given here.

Target: hCB1 (Homo sapiens, UniProt P21554)
Assay: bioSensAll ebBRET signaling profiling, hCB1
Assay type: cell-based
Design: host or cells: HEK293SL cells, transient PEI transfection

hCB1, sequence (P21554 whole entry): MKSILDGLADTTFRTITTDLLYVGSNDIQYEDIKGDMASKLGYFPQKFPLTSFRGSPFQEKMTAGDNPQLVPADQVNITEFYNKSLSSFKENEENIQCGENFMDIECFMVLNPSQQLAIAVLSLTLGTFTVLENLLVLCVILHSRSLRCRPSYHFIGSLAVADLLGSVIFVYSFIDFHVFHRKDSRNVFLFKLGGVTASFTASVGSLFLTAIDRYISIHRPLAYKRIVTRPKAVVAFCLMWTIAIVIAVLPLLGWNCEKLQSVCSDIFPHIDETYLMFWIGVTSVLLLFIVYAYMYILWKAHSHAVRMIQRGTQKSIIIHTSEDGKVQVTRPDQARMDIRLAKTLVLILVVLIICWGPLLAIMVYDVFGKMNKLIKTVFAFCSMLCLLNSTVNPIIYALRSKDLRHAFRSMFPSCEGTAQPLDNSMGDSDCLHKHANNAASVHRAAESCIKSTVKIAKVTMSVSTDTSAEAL

In the case of COC(=O)C(C)(NC(=O)c1cc(C)n(-c2cccc(C(F)(F)F)c2)n1)c1cccs1 (stereo not drawn) [‘4042], the “Barr2+GRK2 hCB1” value (Log [Compound] (M) -4.22186) was 92.62* and 120.7*, the “G13 hCB1” value (Log [Compound] (M) -4.22186) was 70.6599 and the “G15 hCB1” value (Log [Compound] (M) -4.22186) was 109.73 and 102.131. For the same molecule, the “Gi1 hCB1” value (Log [Compound] (M) -4.22186) was 104.966 and 104.552 and 101.354, the “Gi2 hCB1” value (Log [Compound] (M) -4.22186) was 114.417 and 105.522 and the “GoB hCB1” value (Log [Compound] (M) -4.22186) was 107.662 and 102.746 and 100.082. For the same molecule, the “Gq hCB1” value (Log [Compound] (M) -4.22186) was 1205, the “Gs hCB1” value (Log [Compound] (M) -4.22186) was 6574 and the “Barr2+GRK2 hCB1” value (Log [Compound] (M) -4.63927) was 82.3587 and 72.7006. The “G13 hCB1” value (Log [Compound] (M) -4.63927) was 46.7858 and 87.1754, the “G15 hCB1” value (Log [Compound] (M) -4.63927) was 108.775 and 92.8459 and the “Gi1 hCB1” value (Log [Compound] (M) -4.63927) was 101.502 and 110.826 and 98.3137. For the same molecule, the “Gi2 hCB1” value (Log [Compound] (M) -4.63927) was 122.075 and 85.154, the “GoB hCB1” value (Log [Compound] (M) -4.63927) was 110.056 and 106.901 and 98.7991 and the “Gq hCB1” value (Log [Compound] (M) -4.63927) was 1175. For the same molecule, the “Gs hCB1” value (Log [Compound] (M) -4.63927) was 6296, the “Gz hCB1” value (Log [Compound] (M) -4.63927) was 112.813 and 91.1447 and the “Barr2+GRK2 hCB1” value (Log [Compound] (M) -5.05788) was 70.2312 and 47.6394. The “G15 hCB1” value (Log [Compound] (M) -5.05788) was 113.05 and 88.4535, the “Gi1 hCB1” value (Log [Compound] (M) -5.05788) was 105.528 and 109.408 and 94.1617 and the “Gi2 hCB1” value (Log [Compound] (M) -5.05788) was 116.649 and 83.6719. For the same molecule, the “GoB hCB1” value (Log [Compound] (M) -5.05788) was 115.498 and 117.852 and 92.0047, the “Gq hCB1” value (Log [Compound] (M) -5.05788) was 1109 and the “Gs hCB1” value (Log [Compound] (M) -5.05788) was 6591. For the same molecule, the “Gz hCB1” value (Log [Compound] (M) -5.05788) was 89.4695 and 99.3467, the “G13 hCB1” value (Log [Compound] (M) -5.47381) was 42.3393 and 80.0269 and the “G15 hCB1” value (Log [Compound] (M) -5.47381) was 106.626 and 91.4256. For the same molecule, the “Gi1 hCB1” value (Log [Compound] (M) -5.47381) was 102.594 and 101.052 and 96.5342, the “Gi2 hCB1” value (Log [Compound] (M) -5.47381) was 113.717 and 80.6941 and the “GoB hCB1” value (Log [Compound] (M) -5.47381) was 111.936 and 119.903 and 88.1947. For the same molecule, the “Gq hCB1” value (Log [Compound] (M) -5.47381) was 1096, the “Gs hCB1” value (Log [Compound] (M) -5.47381) was 6432 and the “Gz hCB1” value (Log [Compound] (M) -5.47381) was 99.3173 and 98.4249. For the same molecule, the “Barr2+GRK2 hCB1” value (Log [Compound] (M) -5.89285) was 78.4199 and 57.3671, the “G15 hCB1” value (Log [Compound] (M) -5.89285) was 110.351 and 94.8449 and the “Gi1 hCB1” value (Log [Compound] (M) -5.89285) was 96.0236 and 103.056 and 95.3776. For the same molecule, the “Gi2 hCB1” value (Log [Compound] (M) -5.89285) was 120.967 and 77.6348, the “GoB hCB1” value (Log [Compound] (M) -5.89285) was 107.616 and 111.235 and 93.9859 and the “Gq hCB1” value (Log [Compound] (M) -5.89285) was 1179. For the same molecule, the “Gs hCB1” value (Log [Compound] (M) -5.89285) was 6305, the “Gz hCB1” value (Log [Compound] (M) -5.89285) was 104.129 and 105.45 and 96.7384 and the “Barr2+GRK2 hCB1” value (Log [Compound] (M) -6.31878) was 80.7003 and 54.8939. The “G15 hCB1” value (Log [Compound] (M) -6.31878) was 115.7 and 96.7912, the “Gi1 hCB1” value (Log [Compound] (M) -6.31878) was 96.367 and 108.992 and 101.754 and the “Gi2 hCB1” value (Log [Compound] (M) -6.31878) was 121.929 and 79.8783. For the same molecule, the “GoB hCB1” value (Log [Compound] (M) -6.31878) was 95.5518 and 109.274 and 88.1947, the “Gq hCB1” value (Log [Compound] (M) -6.31878) was 1143 and the “Gs hCB1” value (Log [Compound] (M) -6.31878) was 6312. For the same molecule, the “Gz hCB1” value (Log [Compound] (M) -6.31878) was 91.7649 and 96.1616 and 90.8724, the “Barr2+GRK2 hCB1” value (Log [Compound] (M) -6.72585) was 68.6764 and 46.9799 and the “G15 hCB1” value (Log [Compound] (M) -6.72585) was 112.142 and 94.2925. For the same molecule, the “Gi1 hCB1” value (Log [Compound] (M) -6.72585) was 106.09 and 92.9585 and 96.5936, the “Gi2 hCB1” value (Log [Compound] (M) -6.72585) was 109.48 and 81.9179 and the “GoB hCB1” value (Log [Compound] (M) -6.72585) was 86.2761 and 114.112 and 87.3057. The “Gq hCB1” value (Log [Compound] (M) -6.72585) was 1077, the “Gs hCB1” value (Log [Compound] (M) -6.72585) was 6405 and the “Gz hCB1” value (Log [Compound] (M) -6.72585) was 96.9343 and 94.4158 and 89.6782. For the same molecule, the “Barr2+GRK2 hCB1” value (Log [Compound] (M) -7.14267) was 59.7621 and 50.2774, the “G15 hCB1” value (Log [Compound] (M) -7.14267) was 114.268 and 99.1321 and the “Gi1 hCB1” value (Log [Compound] (M) -7.14267) was 107.604 and 101.422 and 97.765. The “Gi2 hCB1” value (Log [Compound] (M) -7.14267) was 109.219 and 83.8759, the “GoB hCB1” value (Log [Compound] (M) -7.14267) was 86.7157 and 119.974 and 89.2869 and the “Gq hCB1” value (Log [Compound] (M) -7.14267) was 1043. The “Gs hCB1” value (Log [Compound] (M) -7.14267) was 7002, the “Gz hCB1” value (Log [Compound] (M) -7.14267) was 98.2797 and 100.101 and 88.7145 and the “Barr2+GRK2 hCB1” value (Log [Compound] (M) -7.55284) was 52.5063 and 42.0336. The “G15 hCB1” value (Log [Compound] (M) -7.55284) was 113.933 and 98.6587, the “Gi1 hCB1” value (Log [Compound] (M) -7.55284) was 97.1473 and 109.377 and 98.1802 and the “Gi2 hCB1” value (Log [Compound] (M) -7.55284) was 110.556 and 82.2578. For the same molecule, the “GoB hCB1” value (Log [Compound] (M) -7.55284) was 88.4435 and 120.01 and 87.3057, the “Gq hCB1” value (Log [Compound] (M) -7.55284) was 1071 and the “Gs hCB1” value (Log [Compound] (M) -7.55284) was 6586. For the same molecule, the “Gz hCB1” value (Log [Compound] (M) -7.55284) was 92.0765 and 86.4032 and 85.0169, the “Barr2+GRK2 hCB1” value (Log [Compound] (M) -8) was 45.4579 and 41.3741 and the “G15 hCB1” value (Log [Compound] (M) -8) was 112.381 and 101.184. The “Gi1 hCB1” value (Log [Compound] (M) -8) was 95.7115 and 104.367 and 92.5898, the “Gi2 hCB1” value (Log [Compound] (M) -8) was 103.223 and 88.1181 and the “GoB hCB1” value (Log [Compound] (M) -8) was 98.6892 and 112.511 and 89.2869. For the same molecule, the “Gq hCB1” value (Log [Compound] (M) -8) was 1060, the “Gs hCB1” value (Log [Compound] (M) -8) was 6741 and the “Gz hCB1” value (Log [Compound] (M) -8) was 97.3733 and 99.8321 and 82.6809. The “Barr2+GRK2 hCB1” value (Log [Compound] (M) -8.22186) was 47.6346 and 43.8472, the “G13 hCB1” value (Log [Compound] (M) -8.22186) was 44.4318 and 47.6121 and the “G15 hCB1” value (Log [Compound] (M) -8.22186) was 112.142 and 106.076. The “Gi1 hCB1” value (Log [Compound] (M) -8.22186) was 104.327 and 106.186 and 100.167, the “Gi2 hCB1” value (Log [Compound] (M) -8.22186) was 112.022 and 97.4049 and the “GoB hCB1” value (Log [Compound] (M) -8.22186) was 115.24 and 97.3514 and 98.8499. The “Gq hCB1” value (Log [Compound] (M) -8.22186) was 1073, the “Gs hCB1” value (Log [Compound] (M) -8.22186) was 6493 and the “Gz hCB1” value (Log [Compound] (M) -8.22186) was 122.54 and 109.635 and 78.9413. The “Barr2+GRK2 hCB1” value (Log [Compound] (M) -8.39794) was 32.0865 and 32.6356, the “G15 hCB1” value (Log [Compound] (M) -8.39794) was 101.826 and 96.5808 and the “Gi1 hCB1” value (Log [Compound] (M) -8.39794) was 93.4953 and 99.8959 and 97.0977. For the same molecule, the “Gi2 hCB1” value (Log [Compound] (M) -8.39794) was 102.295 and 80.9389, the “GoB hCB1” value (Log [Compound] (M) -8.39794) was 81.1381 and 111.288 and 86.2389 and the “Gq hCB1” value (Log [Compound] (M) -8.39794) was 1055. For the same molecule, the “Gs hCB1” value (Log [Compound] (M) -8.39794) was 6872, the “Gz hCB1” value (Log [Compound] (M) -8.39794) was 84.7686 and 103.436 and 80.0517 and the “G13 hCB1” value (Log [Compound] (M) -8.68787) was 39.593 and 30.3572.
